Measured values as given in US7056536B2, “Non-corrosive sterilant composition” (Ecolab Inc., priority 1998, dated 2006).

Tested on: Bacillus cereus spores
Assay: Rate of Kill Antimicrobial Efficacy (SOP CB021-04), Formulas 1-8 with octanoic/peroctanoic acid, 40° C.
Format: cell-based
Conditions: on a weight basis
Description: Ecolab Microbiological Services SOP CB021-04; Rate of Kill Antimicrobial Efficacy. Following exposure to the formula and subsequent neutralization, spores were heat shocked for 13 minutes at 80° C. before plating. [table]

SMILES: CCCCCCCC(=O)OO [peroctanoic acid, peroxyoctanoic acid]
- effect on the sporicidal efficacy of 150 ppm POAA against B. cereus, compared with octanoic acid: greater effect
